The values that follow come from patent publication US20100184818A1, “PHOTOSENSITIZERS FOR TARGETED PHOTODYNAMIC THERAPY” (THE GENERAL HOSPITAL CORPORATION, priority 2007, published 2010).

Data set [1] can be described thus: Octanol-water distribution coefficient. The class given is physicochemical. The following applies: 1-octanol / DI water, absorbance at 330 nm. As to the method: Each compound was dissolved in a minimum amount of DMSO: CI1 (0.9 mg in 200 μl), CI2 (5.3 mg in 200 μl), CI3 (5.4 mg in 200 μl). Ten ml of DI water and 10 ml of 1-octanol were added in each compound and vigorously shaken for 2 min. and the vials of the compounds were settled down overnight. The phases were separated and UV-spectra of each phase were analyzed. Distribution coefficient of each compound was determined using absorbance of aqueous phases and organic phases at 330 nm.

The nature of data set [2]: Singlet oxygen 1270-nm luminescence and quantum yield. It is filed as physicochemical. The note with it: for Singlet oxygen luminescence decay curve in organic solvent: CH3OD, 449 nm excitation; for Singlet oxygen decay curve when solvent changed to aqueous buffer: deuterated PBS versus CH3OD. An excerpt:
The sample in a 0.25 mm quartz cell was illuminated within the resonant cavity as described above. Singlet oxygen phosphorescence at 1270 nm was monitored by a nitrogen-cooled germanium detector (Model EO-817, North Coast Scientific Corp, Santa Rosa, Calif.). Photoexcitation of the sample studied was induced by a 5 ns 355 nm laser pulse from a Q-switched Nd:YAG laser (Continuum Surelite II, Santa Clara, Calif.) equipped with an optical parametric oscillator (Opotek, Carlsbad, Calif.). Sample in deuterated PBS (pD ˜6.9) or in deuterated methanol (CH3OD) was excited with 449 nm wavelength.

Data set [3] has as its system J774 cells. As to the kind of experiment: Intracellular reactive oxygen species, H2DCFDA probe fluorescence microscopy. The note with it: 5 μM BF4 for 24 h, then probe, 5 J/cm2 405 nm laser, compared with probe alone. It is filed as cell-based, murine. Here is the method:
J774 cells were incubated with 5 μM BF4 for 24 h and on the next day 5 μg/ml of 5- (and -6)-chloromethyl-2′-7′-dichlorodihydrofluoresceine diacetate, (CMH2DCFDA, Molecular Probes, Invitrogen) in complete medium was added and incubated for 30 min at 37° C., then cells were washed with PBS and 5 J/cm2 of 405 nm laser light (Nichia Corp, Detroit, Mich.) was delivered. Five to 10 min later a Leica DMR confocal laser fluorescence microscope (Leica Mikroskopie and Systeme GmbH, Wetzler, Germany) with excitation by a 488 nm argon laser and emission with a 530 nm+/−10 nm bandpass filter, and a 63×1.20 water immersion lens was used to image the cells at a resolution of 1024×1024 pixels. Images were acquired using TCS NT software (Version 1.6.551, Leica Lasertechnik, Heidelberg, Germany).

The test system of data set [4] is CT26 cells. As to the kind of experiment: PDT phototoxicity, MTT assay. It is filed as cell-based, murine. The note with it: 2 μM, 80 J/cm2 of light. Here is the method:
When the cells reached 80% confluence, they were washed with PBS and harvested with 2 mL of 0.25% trypsin-EDTA solution (Sigma). Cells were then centrifuged and counted in trypan blue to ensure viability and plated at density of 5000/well in flat-bottom 96 well plates (Fisher Sci, Pittsburgh, Pa.). Cells were allowed 24 h to attach.
On the following day dilutions of the fullerenes were prepared in complete RPMI medium and added to the cells at […] for 24 h incubation as described. Prior to illumination the fullerene solution was removed and fresh complete medium was replaced and the illumination (150 mW/cm2 white light, 1-80 J/cm2) was performed. The light spot covered 9 wells which were considered as one experimental group. All wells in a group were illuminated at the same time. […]
Following PDT treatment the cells were returned to the incubator overnight and the phototoxicity was measured using a 4 h MTT assay read at 560 nm using a microplate spectrophotometer (Spectra Max 340 PC, Molecular Devices, Sunnyvale, Calif.). […]
Briefly cells were treated with PDT sufficient to kill 80% of cells (5 J/cm2 for J774, 20 J/cm2 for LLC and 80 J/cm2 for CT26). […] Samples were incubated in the dark for 1 h at 37° C. and fluorescence was measured (excitation 400 nm, emission 505 nm). The protein per sample was measured with bicinchoninic acid protein assay.

Consider `C[N+]1(C)CC2c3c4c5c6c3c3c(c7ccc8c9ccc%10c%11c%12c%13c%14c(c6c6c3c7c8c(c9c%10%13)c%146)=C3C5C(C=C4)C(C=C%11)C3%12)C2C1.[I-]` (stereo not drawn) [CI1], for which, in data set [1], the LogKow is recorded as 2.15 and the “Octanol-water partition constant Kow” value is reported as 140.80. Further, in data set [2], the “Singlet oxygen luminescence decay curve in organic solvent” value (shortened to “Singlet oxygen luminescence decay curve”) is reported as “very similar luminescence decay curves” and the “Singlet oxygen decay curve when solvent changed to aqueous buffer” value is on record as “almost disappeared”. In addition, the “Fluorescence of intracellular ROS probe after illumination” value in data set [3] is “large increase in fluorescence”. Further, the “Lethal dose of PDT (share of cells killed)” value in data set [4] was determined as 80%.
Consider `O=C(NC(CO)CO)C1(C(=O)NC(CO)CO)C2c3c4c5c6c3c3c(c7ccc8c9ccc%10c%11ccc%12c%13c(c%14c6c6c3c7c8c3c9c%10c(c%13%11)c%14c36)C5C%12C=C4)C21` (stereo not drawn) [NI1], for which, in data set [1], the LogKow is on record as −1.61 and the “Octanol-water partition constant Kow” value is on record as 0.025.
Regarding `C[N+]1(C)Cc2c3c4c5c6c7c8c9c(c%10c8c8c(c%11c%12c(c%13c%14ccc%15c(c2C1)c4c1c%15c%14c2c%13c%11c8c7c2c61)C[N+](C)(C)C%12)C1C[N+](C)(C)CC%101)C=CC3C95.[I-].[I-].[I-]` (stereo not drawn) [CI3], in data set [1], the LogKow is given as −0.43 and the “Octanol-water partition constant Kow” value was determined as 0.37. Besides, in data set [2], the “Singlet oxygen luminescence decay curve” value is “very similar luminescence decay curves” and the “Singlet oxygen decay curve when solvent changed to aqueous buffer” value is on record as “remained almost unchanged”. Also, the “Singlet oxygen quantum yield in O2 saturated D2O, higher than that found in air” value in data set [2] (O2 saturated D2O versus air saturated) is reported as “about 50%”. The “Singlet oxygen luminescence in aqueous buffer saturated with nitrogen” value in data set [2] (nitrogen saturated aqueous buffer) was “luminescence disappeared”. In data set [4], the “Lethal dose of PDT (share of cells killed)” value was found to be 60%.
For `C[N+]1(C)Cc2c(c3c4ccc5c6c7c8c9c%10c%11c%12c%13c(c%14c%12c%12c(c2c2c%12c%11c9c(c4c58)c32)C2C[N+](C)(C)CC%142)C=CC2C%13C=%10C7C2C=C6)C1.[I-].[I-]` (stereo not drawn) [CI2], in data set [1], the LogKow was found to be 0.11 and the “Octanol-water partition constant Kow” value is on record as 1.28.
As for `Cc1cc2nc3c(=O)[nH]c(=O)nc-3n(C[C@H](O)[C@H](O)[C@H](O)CO)c2cc1C` [riboflavin, Riboflavin, reference compound], in data set [2], the “Singlet oxygen luminescence decay curve” value is listed as “somewhat larger” and the “Singlet oxygen decay curve when solvent changed to aqueous buffer” value is listed as “remained almost unchanged”.
For the molecule `O=C(NC(CO)CO)C1(C(=O)NC(CO)CO)c2c1c1c3ccc4c5c6c7c(c8c9c7c7c%10c%11c%12c(ccc%13c2c2c1c1c3c4c6c7c1c%10c2c%12%13)C(C=C8)C9%11)C1C5C1(C(=O)NC(CO)CO)C(=O)NC(CO)CO` (stereo not drawn) [NI2], in data set [1], the LogKow is on record as −1.49 and the “Octanol-water partition constant Kow” value is 0.032.
